The numbers were not newly measured in patent US20050255155A1, “Modified release cilostazol compositions” (Glenmark Pharmaceuticals Limited, priority 2004, published 2005), which cites them from elsewhere.

For the data set the following is noted: BCS characterisation.

Turning to `O=C1CCc2cc(OCCCCc3nnnn3C3CCCCC3)ccc2N1` [cilostazol, 6-[4-(1-cyclohexyl-1H-tertazole-5-yl)butoxy]-3,4-dihydro-2 (1H)-quinolinone], the solubility entry is “low solubility”.
